Counter-ions that a name gives are not always drawn. Like-named read-outs stand apart in the source and are kept apart here.
How the values were obtained:
[1] = target: CDK2 (p33^cdk2, cyclin E) (Homo sapiens, UniProt P24941); assay: CDK inhibition assay, p33^cdk2 kinase, histone H1 phosphorylation;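 also: Baculovirus-expressed kinase/cyclin complex from Sf9 cell extract, 10 min at 30 °C, phosphoproteins separated by SDS gel and quantified by image analysis, activity relative to DMSO control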
Method: Cyclin-dependent kinases (p34^cdc2, p33^cdk2) and cyclins (cyclin B, E) are produced in Sf9 insect cells coinfected with appropriate baculoviral constructs. The cells are harvested 68-72 hrs post infection in lysis buffer for 30 min on ice and the soluble fraction is recovered by centrifugation at 14.000 g for 10 min. The protein extract is stored at −80° C.
Lysis buffer: 50mM Tris pH 7.4, 150mM NaCl, 5 mM EDTA, 20 mM NaF, 1% Tween, 1 mM DTT, 0.1 mM PMSF, leupeptine, aprotonine.
To carry out experiments on kinetics under linear conditions, the final point test system for kinase activity measurement is used. The kinase is added to reaction mixture in such a way as to obtain linear activity with respect to the concentration of enzyme and with respect to time.
Kinase activity is determined at 30° C. in the kinase buffer.
Tested compounds are usually dissolved to 100 mM solutions in DMSO, final concentration of DMSO in reaction mixture never exceeds 1%. The controls contain suitable dilutions of DMSO.
After 10 min, addition 3×SDS sample buffer stops the incubations. Phosphorylated proteins are separated electrophoretically using 10% SDS polyacrylamide gel. The measurement of kinase activity is done using digital image analysis.
The kinase activity is expressed as a percentage of maximum activity, the apparent inhibition constants are determined by graphic analysis.
Kinase buffer: 50 mM Hepes pH 7.4, 10 mM MgCl2, 5 mM EGTA, 10 mM

[2] = target: T1, CDK1 (p34^cdc2, cyclin B) (Homo sapiens, UniProt P06493); assay: CDK inhibition assay, p34^cdc2 kinase, histone H1 phosphorylation; type: biochemical; details: 15 μM ATP, histone H1, 30° C.
T1 construct: made in house; host or cells: Sf9 insect cells (baculovirus co-infection)
Method: The controls contain suitable dilutions of DMSO.
2-glycerolphosphate, 1 mM NaF, 1 mM DTT

[3] = system: K562 (human chronic myeloblastic leukemia); assay: In vitro cytotoxic activity, Calcein AM, three days; type: cell-based; details: read-out: K-562 IC50
Method: (§1) We have been using the following cell lines: HELA (human cervical carcinoma), MCF7 (human breast adenocarcinoma), NIH 3T3 (mouse fibroblasts), HOS (human osteogenic sarcoma), HL 60 (human promyelocytic leukemia), G 361 (human malignant melanoma), K562 (human chronic myeloblastic leukemia), CEM (human lymphoblastoid leukaemia). Tested drugs were added to the cell cultures in six different concentration and kept at 37° C. and 5% CO2 for three days. All cell lines were grown in DMBM medium (Gibco BRL) supplemented with 10% (v/v) fetal bovine serum and L-glutamine and maintained at 37° C. in a humidified atmosphere with 5% CO2. 10^4 cells were seeded into each well of 96 well plate, allowed to stabilize for at least 2 h and then tested compounds were added at various concentrations ranging from 200 to 0.2 μM in triplicates. Three days after drug addition Calcein AM solution (Molecular Probes) was added and let to enter the cells for 1 hour. Fluorescence of viable cells was quantified employing Fluoroskan Ascent (Microsystems).

[4] = system: MCF7 (human breast adenocarcinoma); assay: as above; type: cell-based
Method: as §1

[5] = system: root meristem cells of V. faba; assay: Antimitotic and apoptotic effects in plant root meristem cells; type: cell-based, Vicia faba; details: high doses
[6] = system: Cytokinin-dependent tobacco callus Nicotiana tabacum L. cv. Wisconsins 38; assay: Tobacco callus bioassay for cytotoxicity (herbicidal activity); type: cell-based; details: Nicotiana tabacum, 672 h, four weeks
Method: The compounds to be tested were dissolved in dimethylsulfoxide (DMSO) and the solution brought up to 10^−3 M with distilled water. […] Cytokinin-dependent tobacco callus Nicotiana tabacum L. cv. […] Subcultivation was carried out every three weeks. Fourteen days before the bioassay, the callus tissue was transferred to the media without 6-benzylaminopurine. Compounds were tested with two different concentrations of 6-benzylaminopurine (10^−5 M and 10^−6 M). Inhibitory growth activity was determined from the increase in fresh callus weight after four weeks of cultivation. Five replicates were prepared for each concentration tested and the entire test was repeated at least twice.

[7] = system: CDC2a (cdc2a-MS protein, plant Cdc2-kinase); type: biochemical; details: enzyme bound to p13^suc1-agarose, histone H1, various concentrations
Method: (§2) Enzyme activity bound to p13^suc1-agarose was measured by phosphorylation of histone H1 substrate protein in the presence of various concentrations of (1) 7-furfurylamino-3-methylpyrazolo[4,3-d]pyrimidine, (2) 7-benzylamino-3-isopropylpyrazolo[4,3-d]pyrimidine, (3) 7-(3-chloroanilino)-3-isopropylpyrazolo[4,3-d]pyrimidine, (4) 7-(3-hydroxybenzyl)amino-3-isopropylpyrazolo[4,3-d]pyrimidine.
(§3) The quantification of radioactivity incorporated into histone H1 or myelin basic protein was undertaken using Phosphoimager (original gel images shown on FIG. 1). IC50 were calculated from dose-response curves.

MMK1 protein kinase = MMK1 protein kinase (Vicia faba, UniProt A0AAV1B7B8); assay: Plant MMK1 protein kinase inhibition assay; type: biochemical; details: plant kinase purified from Vicia faba extracts
Method: Protein extraction and purification of pant CDK by binding to p13^suc1-beads or immunopurification with an antibody specific to the cdc2a-MS protein was carried out as described previously (Bögre et al. 1997, Plant Physiol. 113, 1997, 841-852). The MMK1 protein kinase was purified with a specific antibody from Vicia faba extracts as described by Bögre et al. 1997a, Plant Cell 9, 75-83). Protein kinase activity was measured as described above in Example 19. The quantification of radioactivity incorporated into histone H1 or myelin basic protein was undertaken using Phosphoimager (original gel images shown on FIG. 1). IC50 were calculated from dose-response curves. The drugs inhibited the activity of immunopurified Vicia faba and alfalfa Cdc2-kinase. […] In contrast to the regular bipolar spindle in untreated cell, in drug-treated metaphase cells abnormally short and dense kinetochore microtubule fibres were observed. These microtubules were randomly arranged in the vicinity of the kinetochores and connected the chromosomes. Thus the chromosomes were not aligned on the metaphase plate but were arranged in a circle, with kinetochores pointing inwards and chromosome arms pointing outwards. γ-tubulin, which plays a role in microtubule nucleation, also localised to the centre of the monopolar spindle.

[8] = target: CDC2a (cdc2a-MS protein, plant Cdc2-kinase) (Medicago sativa, UniProt P24923); type: biochemical
Method: as §2, §3

[9] = read-out: IC50, growth of tobacco callus, 10^−5 M BAP, 10^−5 M 6-benzylaminopurine
[10] = 10^−6 M 6-benzylaminopurine, read-out: IC50, growth of tobacco callus, 10^−6 M BAP
[11] = read-out: CDK2 IC50, 15 μM ATP, histone H1, 30° C.

T1 sequence (P06493 whole entry, species assumed): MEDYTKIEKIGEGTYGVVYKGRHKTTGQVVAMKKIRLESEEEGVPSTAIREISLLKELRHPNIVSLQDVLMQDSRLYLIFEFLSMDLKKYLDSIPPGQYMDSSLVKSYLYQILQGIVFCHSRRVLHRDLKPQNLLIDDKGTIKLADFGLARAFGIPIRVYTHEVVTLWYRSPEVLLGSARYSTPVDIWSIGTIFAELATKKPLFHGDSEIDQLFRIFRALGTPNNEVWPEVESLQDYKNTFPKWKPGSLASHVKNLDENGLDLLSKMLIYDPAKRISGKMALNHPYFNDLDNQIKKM
T1 sequence (P14635 whole entry partner, species assumed): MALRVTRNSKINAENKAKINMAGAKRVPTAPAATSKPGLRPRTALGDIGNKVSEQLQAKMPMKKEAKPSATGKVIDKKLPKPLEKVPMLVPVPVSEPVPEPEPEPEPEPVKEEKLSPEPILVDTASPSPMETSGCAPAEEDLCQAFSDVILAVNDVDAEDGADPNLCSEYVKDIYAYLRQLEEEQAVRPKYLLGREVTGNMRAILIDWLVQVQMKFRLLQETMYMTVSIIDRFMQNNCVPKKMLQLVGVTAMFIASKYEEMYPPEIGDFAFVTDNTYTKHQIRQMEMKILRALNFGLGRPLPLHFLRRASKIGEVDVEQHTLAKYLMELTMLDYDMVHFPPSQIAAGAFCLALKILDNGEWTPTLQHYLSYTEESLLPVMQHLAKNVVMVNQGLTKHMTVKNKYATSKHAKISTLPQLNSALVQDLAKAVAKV
Sequence of CDC2a (cdc2a-MS protein, plant Cdc2-kinase) (Medicago sativa, UniProt P24923) (P24923 whole entry): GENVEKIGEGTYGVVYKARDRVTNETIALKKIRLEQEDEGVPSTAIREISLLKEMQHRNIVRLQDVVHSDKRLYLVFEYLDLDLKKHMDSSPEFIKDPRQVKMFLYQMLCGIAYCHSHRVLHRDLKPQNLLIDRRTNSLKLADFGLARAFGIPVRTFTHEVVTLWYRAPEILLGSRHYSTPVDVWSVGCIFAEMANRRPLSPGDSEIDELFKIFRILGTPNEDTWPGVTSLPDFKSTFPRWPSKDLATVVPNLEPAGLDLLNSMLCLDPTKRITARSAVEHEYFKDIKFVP
Sequence of MMK1 protein kinase (A0AAV1B7B8 entry or part of it): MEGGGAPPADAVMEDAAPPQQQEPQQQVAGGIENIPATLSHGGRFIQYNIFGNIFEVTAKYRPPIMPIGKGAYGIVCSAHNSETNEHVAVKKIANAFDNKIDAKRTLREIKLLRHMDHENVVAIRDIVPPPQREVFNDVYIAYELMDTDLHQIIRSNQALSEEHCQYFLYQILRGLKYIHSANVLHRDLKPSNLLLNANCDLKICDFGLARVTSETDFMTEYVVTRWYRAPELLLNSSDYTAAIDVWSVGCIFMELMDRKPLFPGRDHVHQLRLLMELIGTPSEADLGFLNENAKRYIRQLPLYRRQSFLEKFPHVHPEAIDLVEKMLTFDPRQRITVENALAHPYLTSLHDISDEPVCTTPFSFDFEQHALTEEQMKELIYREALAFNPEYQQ

| Structure (SMILES) | melting point [°C] | IC50 [1] [µM] | IC50 [2] [µM] | IC50 ([3]; Homo sapiens, K562, 72 h) [µM] | IC50 ([4]; Homo sapiens, MCF7, 72 h) [µM] | apoptosis in plant cells [5] | IC50 [6, 9] [µM] | IC50 [6, 10] [µM] | inhibition of plant cdc2 kinase activity (FIG. 1) [7] | IC50 (MMK1 protein kinase) [µM] | IC50 [1, 11] [µM] | IC50 [3] [µM] | IC50 [4] [µM] | IC50 [8] [µM] |
| --- | --- | --- | --- | --- | --- | --- | --- | --- | --- | --- | --- | --- | --- | --- |
| CCCCCNc1ncnc2c(C(C)C)n[nH]c12 [pentylamino / isopropyl, 7-pentylamino-3-isopropylpyrazolo[4,3-d]pyrimidine] | 73 to 75 | 1.4 | 1.7 | 61 | 32 | – | – | – | – | – | – | – | – | – |
| CC[C@H](CO)Nc1nc(NCc2ccccc2)c2ncn(C(C)C)c2n1 [roscovitine] | – | – | – | – | – | induced apoptosis | – | – | – | – | – | – | – | – |
| CC(C)c1n[nH]c2c(NCc3ccco3)ncnc12 [furfurylamino / isopropyl, 7-furfurylamino-3-isopropylpyrazolo[4,3-d]pyrimidine] | 179 to 182 | 0.8 | 1.8 | > 167 | 130 | – | 25 | 9.4 | – | – | – | – | – | – |
| CC(C)c1n[nH]c2c(Nc3cccc(Cl)c3)ncnc12 [3-chloroanilino / isopropyl, 7-(3-chloroanilino)-3-isopropylpyrazolo[4,3-d]pyrimidine] | – | 0.8 | 2 | 12 | 9 | – | 34 | 8.2 | specific inhibition | – | – | – | – | – |
| CC(C)c1n[nH]c2c(Nc3ccc(Cl)c(C(=O)O)c3)ncnc12 [3-carboxy-4-chloroanilino / isopropyl] | – | – | 2.8 | – | – | – | – | – | – | 1.7 | 2.9 | 1 | 0.4 | 1.6 |
| Cc1n[nH]c2c(NCc3ccccc3Cl)ncnc12 [2-chlorobenzylamino / methyl] | – | – | 25 | – | – | – | – | – | – | 25 | 24 | – | – | – |
| Cc1n[nH]c2c(NCc3ccco3)ncnc12 [furfurylamino / methyl, 7-furfurylamino-3-methylpyrazolo[4,3-d]pyrimidine] | – | 16 | 18 | > 167 | 142 | – | – | – | specific inhibition | – | – | – | – | – |
| C=CCNc1ncnc2c(C(C)C)n[nH]c12 [allylamino / isopropyl] | – | 14 | 16 | 77 | 64 | – | 18 | 3.7 | – | – | – | – | – | – |
| CC(C)c1n[nH]c2c(Nc3cccc(Cl)c3)ncnc12 (as salt: salt) [3-chloroanilino / isopropyl, 7-(3-chloroanilino)-3-isopropylpyrazolo[4,3-d]pyrimidine] | 213 to 216 | – | – | – | – | – | – | – | – | – | – | – | – | – |
| CC(C)c1n[nH]c2c(NCc3cccc(Cl)c3)ncnc12 [3-chlorobenzylamino / isopropyl] | – | 9.4 | 8.8 | 26 | 24 | – | 20 | 1.7 | – | – | – | – | – | – |
| Cc1n[nH]c2c(Nc3cccc(Cl)c3)ncnc12 [3-chloroanilino / methyl] | – | – | 14 | – | – | – | – | – | – | 9.6 | 16 | 35 | 24 | 10 |
| CC(C)c1n[nH]c2c(NCc3ccccc3)ncnc12 [benzylamino / isopropyl, 7-benzylamino-3-isopropylpyrazolo[4,3-d]pyrimidine] | 153 to 154 | 0.5 | 1.3 | 72 | 55 | – | 24 | 6.5 | specific inhibition | – | – | – | – | – |
| CC(C)c1n[nH]c2c(NC3CCCCC3)ncnc12 [cyclohexylamino / isopropyl] | – | 95 | 80 | 98 | 95 | – | 46 | 9.4 | – | – | – | – | – | – |
| CC(C)c1n[nH]c2c(NC3CCCCC3N)ncnc12 (stereo not drawn) [(2-aminocyclohexyl)amino / isopropyl] | – | – | > 100 | – | – | – | – | – | – | > 100 | > 100 | > 167 | > 167 | > 100 |
| COc1ccc(CNc2ncnc3c(C(C)C)n[nH]c23)cc1 [4-methoxybenzylamino / isopropyl, 7-(4-methoxybenzyl)amino-3-isopropylpyrazolo[4,3d]pyrimidine] | 143 to 144 | 1 | 2.3 | 41 | 28 | – | – | – | – | – | – | – | – | – |
| Cc1n[nH]c2c(Nc3ccc(N)c(Cl)c3)ncnc12 [3-chloro-4-aminoanilino / methyl] | – | – | 26 | – | – | – | – | – | – | 32 | 28 | – | – | 30 |
| CC(C)c1n[nH]c2c(NCc3cccc(O)c3)ncnc12 [3-hydroxybenzylamino / isopropyl, 7-(3-hydroxybenzylamino)-3-isopropylpyrazolo[4,3-d]pyrimidine] | – | 0.9 | 1.1 | 132 | 105 | – | – | – | specific inhibition | – | – | – | – | – |
| CC(C)=CCNc1ncnc2c(C(C)C)n[nH]c12 [isopentenylamino / isopropyl, 7-(isopent-2-en-(1-yl)amino)-3-isopropylpyrazolo[4,3-d]pyrimidine] | – | 1.3 | 4.5 | > 167 | > 167 | – | 15.3 | 1.7 | – | – | – | – | – | – |
| CC(C)c1n[nH]c2c(Nc3ccccc3)ncnc12 [anilino / isopropyl] | – | 5.2 | 4.4 | 21 | 15 | – | 41 | 5.3 | – | – | – | – | – | – |
| Cc1ccccc1CNc1ncnc2c(C(C)C)n[nH]c12 [2-methylbenzylamino / isopropyl] | – | 1.4 | 2 | 75 | 63 | – | 14 | 4.2 | – | – | – | – | – | – |
